Reference: PubChem BioAssay (NCI)
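In this assay, cells in 96-well plates receive the compound at five concentrations for 48 hours. Endpoints are linearly interpolated between the surrounding concentrations. The concentration for full growth arrest is given as TGI.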

What was measured:
Test in all cases: DTP human tumour cell line panel, 48 h
[1] = tested on: ACHN renal
[2] = tested on: SNB-75 CNS
[3] = tested on: KM12 colon
[4] = tested on: MALME-3M melanoma
[5] = tested on: OVCAR-8 ovarian
[6] = tested on: HOP-92 NSCLC
[7] = tested on: SR leukemia
[8] = tested on: OVCAR-5 ovarian
[9] = tested on: MOLT-4 leukemia
[10] = tested on: UACC-257 melanoma
[11] = tested on: A549 NSCLC
[12] = tested on: HCC-2998 colon
[13] = tested on: CCRF-CEM leukemia
[14] = tested on: SW-620 colon
[15] = tested on: SK-OV-3 ovarian
[16] = tested on: HT29 colon
[17] = tested on: M14 melanoma
[18] = tested on: OVCAR-3 ovarian
[19] = tested on: TK-10 renal
[20] = tested on: MCF7 breast
[21] = tested on: SNB-19 CNS
[22] = tested on: COLO 205 colon
[23] = tested on: UACC-62 melanoma
[24] = tested on: SK-MEL-2 melanoma
[25] = tested on: MDA-MB-435
[26] = tested on: UO-31 renal
[27] = tested on: MDA-MB-231 breast
[28] = tested on: U251 CNS
[29] = tested on: NCI-H23 lung
[30] = tested on: HCT-116 colon
[31] = tested on: LOX IMVI melanoma
[32] = tested on: NCI-H460 lung
[33] = tested on: K-562 leukemia
[34] = tested on: PC-3 prostate
[35] = tested on: HOP-62 NSCLC
[36] = tested on: NCI-H522 lung
[37] = tested on: RPMI-8226 leukemia
[38] = tested on: SF-539 CNS
[39] = tested on: 786-0 renal
[40] = tested on: HS 578T breast
[41] = tested on: IGROV1 ovarian
[42] = tested on: SF-268 CNS
[43] = tested on: NCI-H226 lung
[44] = tested on: RXF 393 renal
[45] = tested on: T-47D breast
[46] = tested on: EKVX NSCLC
[47] = tested on: SN12C renal
[48] = tested on: CAKI-1 renal
[49] = tested on: HCT-15 colon
[50] = tested on: SK-MEL-5 melanoma
[51] = tested on: A498 renal
[52] = tested on: SK-MEL-28 melanoma
[53] = tested on: HL-60(TB) leukemia
[54] = tested on: SF-295 CNS
[55] = tested on: MDA-N
[56] = tested on: DU-145 prostate
[57] = tested on: BT-549 breast

COc1cccc(C2c3cc4c(cc3OC(NNS(=O)(=O)c3ccc(C)cc3)C2C)OCO4)c1OC (configuration not stated)
TGI [1]: 9.85 µM | TGI [2]: 60.5 µM | TGI [3]: 13.5 µM | TGI [4]: 49.9 µM | TGI [5]: > 100 µM | TGI [6]: 7.18 µM | TGI [7]: 3.29 µM | TGI [8]: 74.2 µM | TGI [9]: 9.02 µM | TGI [10]: > 100 µM | TGI [11]: 11.4 µM | TGI [12]: > 100 µM | TGI [13]: 5.31 µM | TGI [14]: > 100 µM | TGI [15]: 7.83 µM | TGI [16]: 13.9 µM | TGI [17]: > 100 µM | TGI [18]: 4.55 µM | TGI [19]: 49.8 µM | TGI [20]: 79.5 µM | TGI [21]: 86.6 µM | TGI [22]: 3.79 µM | TGI [23]: 33.2 µM | TGI [24]: 7.18 µM | TGI [25]: > 100 µM | TGI [26]: 52.8 µM | TGI [27]: 27.6 µM | TGI [28]: 16.9 µM | TGI [29]: > 100 µM | TGI [30]: 4.56 µM | TGI [31]: 5.15 µM | TGI [32]: 8.64 µM | TGI [33]: 6.79 µM | TGI [34]: 92.4 µM | TGI [35]: 9.06 µM | TGI [36]: 8.61 µM | TGI [37]: 6.86 µM | TGI [38]: 11.9 µM | TGI [39]: 68.3 µM | TGI [40]: 21.1 µM | TGI [41]: 15.3 µM | TGI [42]: > 100 µM | TGI [43]: 13.1 µM | TGI [44]: 21.6 µM | TGI [45]: > 100 µM | TGI [46]: > 100 µM | TGI [47]: 35.3 µM | TGI [48]: 8.56 µM | TGI [49]: 9.82 µM | TGI [50]: 19 µM | TGI [51]: 6.42 µM | TGI [52]: > 100 µM | TGI [53]: 3.28 µM | TGI [54]: > 100 µM | TGI [55]: > 100 µM | TGI [56]: 7.61 µM | TGI [57]: 36 µM
